Results published in US20240415923A1, “RNA-Dependent RNA Polymerase Inhibitory Compounds, Uses in Managing Viral Infections, and Pharmaceutical Compositions” (priority 2023, published 2024).
Where a name gives a salt, the structure may show the parent alone. Starred links: 1 amine or outer side, 2 acyl side, 3 side chain; linkers in the order of their positions; H or OH if unused. Positions of bridges follow the written chain, without caps; N, C: chain ends. Non-standard residues stand in square brackets, D forms with d. Residues, ends and D or L forms follow the SMILES beside them. *: point of attachment. hTyr(3S-OH,4S-OH,3'-OSO3H) = N[C@H](C(=O)O)[C@H](O)[C@@H](O)c1ccc(O)c(OS(=O)(=O)O)c1; Orn(4R-OH,5R-OH) = O=C([C@H](C[C@@H](O)[C@@H](O)N[*:3])N[*:1])[*:2]; Pro(3S-OH,4S-Me) = C[C@H]1CN[C@H](C(=O)O)[C@H]1O; X1 = CCCCCOc1ccc(-c2cc(-c3ccc(C(=O)*)cc3)no2)cc1; Gln(3R-OH) = NC(=O)C[C@@H](O)[C@H](N)C(=O)O; Hyp = O=C(O)[C@@H]1C[C@@H](O)CN1

Legend:
RSV polymerase (L-P) [1] = target: T1, RSV polymerase (L-P) (Human respiratory syncytial virus A, UniProt P28887); assay: in vitro de novo RNA synthesis assay, TrC12 template; format: biochemical
T1 sequence (P03421 whole entry): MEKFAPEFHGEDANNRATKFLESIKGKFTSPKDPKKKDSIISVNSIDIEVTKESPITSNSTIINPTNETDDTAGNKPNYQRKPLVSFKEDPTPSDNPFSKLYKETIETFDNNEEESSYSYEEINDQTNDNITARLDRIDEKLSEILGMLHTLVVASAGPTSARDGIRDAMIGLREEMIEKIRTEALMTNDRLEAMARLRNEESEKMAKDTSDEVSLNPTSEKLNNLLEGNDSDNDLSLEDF
T1 sequence (P28887 whole entry): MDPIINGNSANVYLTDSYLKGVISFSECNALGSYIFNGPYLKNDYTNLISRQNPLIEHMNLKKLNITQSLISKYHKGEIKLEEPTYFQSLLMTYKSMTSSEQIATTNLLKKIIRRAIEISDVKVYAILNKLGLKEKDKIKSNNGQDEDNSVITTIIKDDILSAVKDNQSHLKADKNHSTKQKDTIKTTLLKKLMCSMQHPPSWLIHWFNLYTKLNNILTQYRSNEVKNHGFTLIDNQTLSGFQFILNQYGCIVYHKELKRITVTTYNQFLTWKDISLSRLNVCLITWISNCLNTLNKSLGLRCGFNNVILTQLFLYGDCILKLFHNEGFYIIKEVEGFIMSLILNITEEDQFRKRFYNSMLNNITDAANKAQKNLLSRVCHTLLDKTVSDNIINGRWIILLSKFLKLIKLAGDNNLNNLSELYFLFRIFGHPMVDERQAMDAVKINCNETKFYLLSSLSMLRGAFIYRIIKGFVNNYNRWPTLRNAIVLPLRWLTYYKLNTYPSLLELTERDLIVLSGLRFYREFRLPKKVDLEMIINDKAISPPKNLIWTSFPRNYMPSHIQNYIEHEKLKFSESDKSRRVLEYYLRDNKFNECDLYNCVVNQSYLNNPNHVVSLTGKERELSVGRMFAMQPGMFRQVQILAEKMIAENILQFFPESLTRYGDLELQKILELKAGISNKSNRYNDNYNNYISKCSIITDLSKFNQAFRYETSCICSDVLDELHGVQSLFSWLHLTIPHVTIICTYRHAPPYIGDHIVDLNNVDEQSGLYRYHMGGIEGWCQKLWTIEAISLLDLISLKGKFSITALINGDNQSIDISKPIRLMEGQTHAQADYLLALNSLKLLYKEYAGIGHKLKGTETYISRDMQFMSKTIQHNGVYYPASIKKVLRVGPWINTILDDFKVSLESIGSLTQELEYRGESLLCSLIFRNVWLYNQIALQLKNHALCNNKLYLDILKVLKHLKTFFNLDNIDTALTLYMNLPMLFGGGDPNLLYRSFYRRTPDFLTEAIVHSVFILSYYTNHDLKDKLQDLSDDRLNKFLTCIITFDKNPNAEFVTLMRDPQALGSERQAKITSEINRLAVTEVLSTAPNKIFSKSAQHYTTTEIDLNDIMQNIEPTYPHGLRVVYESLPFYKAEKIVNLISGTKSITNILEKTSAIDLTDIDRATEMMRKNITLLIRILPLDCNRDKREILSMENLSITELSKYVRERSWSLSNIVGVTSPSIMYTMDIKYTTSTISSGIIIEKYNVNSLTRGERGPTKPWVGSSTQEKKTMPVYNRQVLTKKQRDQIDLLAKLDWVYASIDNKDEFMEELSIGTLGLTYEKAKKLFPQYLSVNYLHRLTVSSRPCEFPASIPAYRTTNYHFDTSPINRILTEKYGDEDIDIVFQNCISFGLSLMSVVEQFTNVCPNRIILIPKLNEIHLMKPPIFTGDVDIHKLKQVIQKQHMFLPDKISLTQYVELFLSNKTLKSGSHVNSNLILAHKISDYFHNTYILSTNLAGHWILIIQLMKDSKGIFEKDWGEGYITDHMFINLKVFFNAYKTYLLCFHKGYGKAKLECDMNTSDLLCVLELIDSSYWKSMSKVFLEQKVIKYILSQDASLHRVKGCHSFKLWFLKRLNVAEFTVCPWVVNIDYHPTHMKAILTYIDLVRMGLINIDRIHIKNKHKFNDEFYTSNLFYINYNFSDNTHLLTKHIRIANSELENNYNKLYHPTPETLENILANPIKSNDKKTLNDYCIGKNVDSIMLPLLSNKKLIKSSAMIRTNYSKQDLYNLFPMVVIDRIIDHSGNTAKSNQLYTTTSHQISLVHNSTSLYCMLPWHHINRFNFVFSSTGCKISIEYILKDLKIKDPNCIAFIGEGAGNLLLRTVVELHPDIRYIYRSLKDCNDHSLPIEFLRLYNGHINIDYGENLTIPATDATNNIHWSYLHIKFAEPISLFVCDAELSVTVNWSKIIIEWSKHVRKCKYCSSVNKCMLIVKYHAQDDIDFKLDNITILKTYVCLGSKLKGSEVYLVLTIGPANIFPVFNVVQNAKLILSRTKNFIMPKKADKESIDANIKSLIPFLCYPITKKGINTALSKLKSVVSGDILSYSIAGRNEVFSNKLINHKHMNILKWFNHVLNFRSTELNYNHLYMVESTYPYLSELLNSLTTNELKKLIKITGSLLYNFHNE

[2] = target: T2, SARS-COV2 polymerase (Nsp7-Nsp8-Nsp12) (Severe acute respiratory syndrome coronavirus 2, UniProt P0DTD1); format: biochemical, severe acute respiratory syndrome coronavirus 2 (SARS-COV2); details: 1 mM
T2 construct: SARS-COV2 polymerase (Nsp7-Nsp8-Nsp12); made in house

NiV polymerase (L-P) = NiV polymerase (L-P) (Nipah virus, UniProt Q997F0); format: biochemical; details: 1 mM
Sequence of NiV polymerase (L-P) (Q997F0 whole entry, looked up): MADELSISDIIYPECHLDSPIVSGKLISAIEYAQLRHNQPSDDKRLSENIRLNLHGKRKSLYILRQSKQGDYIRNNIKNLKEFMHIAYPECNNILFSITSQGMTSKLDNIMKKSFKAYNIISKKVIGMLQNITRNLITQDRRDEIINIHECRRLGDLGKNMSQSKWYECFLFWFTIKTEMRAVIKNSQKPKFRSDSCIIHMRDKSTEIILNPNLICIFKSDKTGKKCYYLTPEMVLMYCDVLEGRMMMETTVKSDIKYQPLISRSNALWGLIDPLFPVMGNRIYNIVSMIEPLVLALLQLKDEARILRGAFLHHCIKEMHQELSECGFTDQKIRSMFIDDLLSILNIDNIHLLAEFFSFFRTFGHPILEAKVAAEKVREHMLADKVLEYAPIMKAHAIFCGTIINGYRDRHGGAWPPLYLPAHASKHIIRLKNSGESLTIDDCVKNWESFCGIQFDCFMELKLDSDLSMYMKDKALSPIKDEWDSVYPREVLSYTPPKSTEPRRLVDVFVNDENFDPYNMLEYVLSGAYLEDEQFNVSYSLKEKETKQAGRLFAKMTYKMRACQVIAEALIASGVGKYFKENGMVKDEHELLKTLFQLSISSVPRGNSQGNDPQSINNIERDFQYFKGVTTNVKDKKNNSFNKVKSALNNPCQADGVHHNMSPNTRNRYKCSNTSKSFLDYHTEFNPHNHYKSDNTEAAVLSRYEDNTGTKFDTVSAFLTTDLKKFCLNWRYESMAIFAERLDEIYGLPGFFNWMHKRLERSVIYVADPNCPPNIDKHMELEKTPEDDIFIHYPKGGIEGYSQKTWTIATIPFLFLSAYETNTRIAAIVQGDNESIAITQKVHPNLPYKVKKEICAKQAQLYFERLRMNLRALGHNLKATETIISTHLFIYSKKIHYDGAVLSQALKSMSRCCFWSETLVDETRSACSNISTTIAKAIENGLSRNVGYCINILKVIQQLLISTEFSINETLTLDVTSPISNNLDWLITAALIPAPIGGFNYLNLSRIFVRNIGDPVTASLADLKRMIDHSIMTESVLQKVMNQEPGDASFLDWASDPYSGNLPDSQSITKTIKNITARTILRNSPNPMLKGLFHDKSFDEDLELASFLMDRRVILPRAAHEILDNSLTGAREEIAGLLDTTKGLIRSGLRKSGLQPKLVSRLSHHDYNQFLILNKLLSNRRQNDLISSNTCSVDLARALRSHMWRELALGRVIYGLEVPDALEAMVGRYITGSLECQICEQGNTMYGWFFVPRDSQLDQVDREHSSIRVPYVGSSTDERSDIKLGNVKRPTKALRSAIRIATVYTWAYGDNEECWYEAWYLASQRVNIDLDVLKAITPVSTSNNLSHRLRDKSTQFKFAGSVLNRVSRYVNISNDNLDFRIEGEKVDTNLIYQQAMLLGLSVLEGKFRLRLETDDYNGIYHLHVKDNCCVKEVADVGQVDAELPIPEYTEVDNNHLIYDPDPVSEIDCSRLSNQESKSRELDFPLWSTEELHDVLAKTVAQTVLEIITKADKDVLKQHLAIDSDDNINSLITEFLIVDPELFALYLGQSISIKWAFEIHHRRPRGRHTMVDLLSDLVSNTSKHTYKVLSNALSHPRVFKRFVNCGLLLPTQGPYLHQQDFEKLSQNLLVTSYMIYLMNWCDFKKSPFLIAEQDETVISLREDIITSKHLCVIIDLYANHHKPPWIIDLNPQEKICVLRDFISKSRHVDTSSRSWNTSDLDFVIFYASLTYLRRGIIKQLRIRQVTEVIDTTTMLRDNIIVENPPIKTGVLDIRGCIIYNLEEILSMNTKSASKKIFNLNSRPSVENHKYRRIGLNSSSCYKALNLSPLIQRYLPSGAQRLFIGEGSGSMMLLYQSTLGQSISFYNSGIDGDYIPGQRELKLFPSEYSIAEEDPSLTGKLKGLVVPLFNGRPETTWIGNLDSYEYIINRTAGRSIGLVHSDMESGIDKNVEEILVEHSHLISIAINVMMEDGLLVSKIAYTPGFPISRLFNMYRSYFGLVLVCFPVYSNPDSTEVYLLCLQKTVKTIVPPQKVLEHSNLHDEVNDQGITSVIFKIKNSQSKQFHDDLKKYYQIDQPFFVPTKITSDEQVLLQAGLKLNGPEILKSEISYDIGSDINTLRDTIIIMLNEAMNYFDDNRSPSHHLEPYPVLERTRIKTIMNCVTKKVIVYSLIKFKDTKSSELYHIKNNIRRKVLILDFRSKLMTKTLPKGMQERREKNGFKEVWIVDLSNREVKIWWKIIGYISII

VSBV polymerase (L-P) = format: biochemical, variegated squirrel bornavirus (VSBV); details: 1 mM
[3] = target: VSV polymerase (L-P1-106) (Vesicular stomatitis Indiana virus, UniProt P03523); format: biochemical; details: 1 mM
RSV polymerase (L-P) [4] = target: T1, RSV polymerase (L-P); assay: in vitro primer-based RNA synthesis assay, TrC12 template and Tr4 primer; format: biochemical; details: 1 mM, TrC12 template, FIG. 3B

SMILES | impact on the RSV polymerase activity in time course (RSV polymerase (L-P) [1]; 0, 25 and 50 μM, FIG. 5A) | activity of RSV polymerase in time course at 50 μM (RSV polymerase (L-P) [1]; 50 μM versus 0 and 25 μM, FIG. 5A) | RSV polymerase activity retained relative to the control group (RSV polymerase (L-P) [1]; 1 mM small molecule in 10% DMSO, 10% DMSO negative control, FIG. 2) | inhibition of RSV polymerase in the in vitro assay (in words) (RSV polymerase (L-P) [1]; 1 mM, FIG. 2) | de novo RNA synthesis activity of RSV polymerase, rank among the tested molecules (RSV polymerase (L-P) [1]; 1 mM, FIG. 3A, compared with 10 other molecules) | inhibition of RNA synthesis activity of SARS-COV2 polymerase [2] | inhibition of RNA synthesis activity of NiV polymerase (NiV polymerase (L-P)) | inhibition of RNA synthesis activity of VSBV polymerase (VSBV polymerase (L-P)) | inhibition of RNA synthesis activity of VSV polymerase [3] | primer-based RNA synthesis activity of RSV polymerase, rank among the tested molecules (RSV polymerase (L-P) [4])
CCCCCOc1ccc(-c2cc(-c3ccc(C(=O)N[C@H]4C[C@@H](O)[C@@H](O)NC(=O)[C@@H]5[C@@H](O)[C@@H](C)CN5C(=O)[C@H]([C@H](O)CC(N)=O)NC(=O)[C@H]([C@H](O)[C@@H](O)c5ccc(O)c(OS(=O)(=O)O)c5)NC(=O)[C@@H]5C[C@@H](O)CN5C(=O)[C@H]([C@@H](C)O)NC4=O)cc3)no2)cc1 [Micafungin, 5-(2-(20-(3-amino-1-hydroxy-3-oxopropyl)-2,11,12,15-tetrahydroxy-6-(1-hydroxyethyl)-16-methyl-5,8,14,19,22,25-hexaoxo-9-(4-(5-(4-(pentyloxy)phenyl)isoxazol-3-yl)benzamido)tetracosahydro-1H-dipyrrolo[2,1-c: 2′,1′-1][1,4,7,10,13,16]hexaazacyclohenicosin-23-yl)-1,2-dihydroxyethyl)-2-hydroxyphenyl hydrogen sulfate] (X1-[Orn(4R-OH,5R-OH)]T[Hyp][hTyr(3S-OH,4S-OH,3'-OSO3H)][Gln(3R-OH)][Pro(3S-OH,4S-Me)]; lactam 1-C) | time and concentration dependent | lowest at all time points | 29.6% | significant inhibitory activity | lowest | inhibit | inhibit | inhibit | inhibit | best inhibitors
Cc1ccc(-n2[nH]c(C)c(N=Nc3cccc(-c4cccc(-c5nnn[nH]5)c4)c3O)c2=O)cc1C [Totrombopag, 2-(3,4-dimethylphenyl)-4-((2-hydroxy-3′-(1H-tetrazol-5-yl)-[1,1′-biphenyl]-3-yl)diazenyl)-5-methyl-1,2-dihydro-3H-pyrazol-3-one] |  |  |  |  |  | inhibit | inhibit | inhibit | inhibit | 
CN1C(N)=NC(C)(c2cc(NC(=O)c3ccc(F)cn3)ccc2F)CS1(=O)=O (stereo not drawn) [Verubecestat, N-(3-(3-amino-2,5-dimethyl-1,1-dioxido-5,6-dihydro-2H-1,2,4-thiadiazin-5-yl)-4-fluorophenyl)-5-fluoropicolinamide] |  |  |  | showed inhibition |  |  |  |  |  | 
